# The supplement of paper PMC4862054
# Experiments:
# Conditions in all cases: 72 h
# MDA-MB-453 [1] = tested on: MDA-MB-453
# How it was run: (§1)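 Viability of breast cancer cell lines was measured with CellTiter-Blue after 72 h of incubation on compound-loaded 384-well plates. Cells were seeded in 20 µl onto compound dissolved in 5 µl medium, and 2.5 µl reagent was added for 2 h at 37 °C before reading at 560/590 nm. EC50 was fitted from percent-inhibition dose-response data censored at the highest concentration, normalised per plate to vehicle and a positive kill control, with zero drug sensitivity score rows dropped.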
# HDQ-P1 [2] = tested on: HDQ-P1
# How it was run: as §1
# DU-4475 [3] = tested on: DU-4475
# How it was run: as §1
# CAL-51 [4] = tested on: CAL-51
# How it was run: as §1
# CAL-85-1 [5] = tested on: CAL-85-1
# How it was run: as §1
# MDA-MB-231 [6] = tested on: MDA-MB-231
# Protocol: (§2)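 Drug sensitivity and resistance testing (DSRT) of breast cancer cell lines in 384-well plates, 5 concentrations in 10-fold dilutions over a compound-specific 10,000-fold range. After 72 h, cytotoxicity was read by CellTox Green fluorescence and viability by CellTiter-Glo luminescence (multiplexed), normalised to DMSO and benzethonium chloride controls. EC50 is the inflection point of the fitted dose-response curve (bottom asymptote free, so it can be relative for partial curves) and is censored at the highest tested concentration. Rows with DSS 0 (no meaningful response) were excluded.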
# CAL-51 [7] = tested on: CAL-51; remark: listed apart in the source
# Protocol: as §2
# CAL-120 = tested on: CAL-120
# How it was run: (§3)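 EC50 was fitted from dose-response curves and censored at the highest concentration tested. To build those curves, breast cancer cell lines (20 µl suspension) were seeded into 384-well plates containing compound at 5 concentrations in 10-fold steps over a compound-specific 10,000-fold range and incubated for 72 h. Readouts were CellTox Green fluorescence (485/520 nm) for cell death and then CellTiter-Glo luminescence for viability, with each plate normalised to 0.1 % DMSO and a positive kill control.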
# HCC1143 = tested on: HCC1143
# How it was run: as §3
# MDA-MB-453 [8] = tested on: MDA-MB-453; remark: listed apart in the source
# How it was run: as §3
# MDA-MB-436 = tested on: MDA-MB-436
# How it was run: as §3
# HDQ-P1 [9] = tested on: HDQ-P1; remark: listed apart in the source
# How it was run: as §3
# Hs578T = tested on: Hs578T
# How it was run: as §3
# BT-474 = tested on: BT-474
# How it was run: as §3
# MCF-10A = tested on: MCF-10A
# How it was run: as §3
# SK-BR-3 = tested on: SK-BR-3
# How it was run: as §3
# DU-4475 [10] = tested on: DU-4475; remark: listed apart in the source
# How it was run: as §3
# MDA-MB-231 [11] = tested on: MDA-MB-231; remark: listed apart in the source
# How it was run: as §3
# MFM-223 = tested on: MFM-223
# How it was run: as §3
# CAL-148 = tested on: CAL-148
# How it was run: as §3
# CAL-51 [12] = tested on: CAL-51; remark: listed apart in the source
# How it was run: as §3
# HCC1599 = tested on: HCC1599
# How it was run: as §3
# CAL-85-1 [13] = tested on: CAL-85-1; remark: listed apart in the source
# How it was run: as §3
Structure (SMILES),"EC50, CellTiter-Blue viability (MDA-MB-453 [1]) [nM]","EC50, CellTiter-Blue viability (HDQ-P1 [2]) [nM]","EC50, CellTiter-Blue viability (DU-4475 [3]) [nM]","EC50, CellTiter-Blue viability (CAL-51 [4]) [nM]","EC50, CellTiter-Blue viability (CAL-85-1 [5]) [nM]","EC50, CellTox Green (MDA-MB-231 [6]) [nM]","EC50, CellTox Green (CAL-51 [7]) [nM]","EC50, CellTiter-Glo (CAL-120) [nM]","EC50, CellTiter-Glo (HCC1143) [nM]","EC50, CellTiter-Glo (MDA-MB-453 [8]) [nM]","EC50, CellTiter-Glo (MDA-MB-436) [nM]","EC50, CellTiter-Glo (HDQ-P1 [9]) [nM]","EC50, CellTiter-Glo (Hs578T) [nM]","EC50, CellTiter-Glo (BT-474) [nM]","EC50, CellTiter-Glo (MCF-10A) [nM]","EC50, CellTiter-Glo (SK-BR-3) [nM]","EC50, CellTiter-Glo (DU-4475 [10]) [nM]","EC50, CellTiter-Glo (MDA-MB-231 [11]) [nM]","EC50, CellTiter-Glo (MFM-223) [nM]","EC50, CellTiter-Glo (CAL-148) [nM]","EC50, CellTiter-Glo (CAL-51 [12]) [nM]","EC50, CellTiter-Glo (HCC1599) [nM]","EC50, CellTiter-Glo (CAL-85-1 [13]) [nM]"
Nc1cc(C(F)(F)F)c(-c2cc(N3CCOCC3)nc(N3CCOCC3)n2)cn1 [BKM-120],532,1260,2260,922,1310,,,,,,,,,,,,,,,,,,
COC(=O)c1ccc2c(c1)NC(=O)/C2=C(\Nc1ccc(N(C)C(=O)CN2CCN(C)CC2)cc1)c1ccccc1 [BIBF 1120],3180,5930,6940,1400,6440,,,,,,,,,,,,,,,,,,
COCC[n+]1c2c(n(Cc3cnccn3)c1C)C(=O)c1ccccc1C2=O [YM155],6.99,11.4,114,20.2,6.98,14.4,30.2,3.32,11.4,25.2,3.9,17.3,212,4.16,27.1,16.8,57.8,8.02,27.2,19.9,16.6,7.29,5.5
CN(C)c1nc(N(C)C)nc(N(C)C)n1 [Altretamine],6880,,,,9540,,,,,,,,,,,,,,,,,,
COc1cc(OC2CCN(C)CC2)ccc1Nc1ncc2c(n1)n(C1CCCC1)c(=O)n2C [AZ 3146],6400,,5180,1390,3240,,768,,,,,,,2620,9260,970,,,,,1010,8240,3780
COc1cc2ncnc(Nc3ccc(F)c(Cl)c3)c2cc1OCCCN1CCOCC1 [Gefitinib],5030,3330,,,,,,,,,,,,,84.2,,,,,788,,,714
CCc1c2c(nc3ccc(OC(=O)N4CCC(N5CCCCC5)CC4)cc13)-c1cc3c(c(=O)n1C2)COC(=O)[C@]3(O)CC [Irinotecan],4750,> 10000,2550,2940,3510,,1220,2590,,,1160,,,2550,4290,1180,1840,,,1450,3290,6850,
c1ccc2c(CCNc3ccc(Nc4ccncc4)cc3)c[nH]c2c1 [Serdemetan],2980,,4500,4940,,8800,285,,,8860,8140,1230,9710,4650,,2780,2370,6230,> 10000,2490,315,5240,8460
O=C(Nc1ccncc1)C(=O)c1cn(Cc2ccc(Cl)cc2)c2ccccc12 [Indibulin],36.1,72.5,1530,631,201,472,860,408,754,164,203,523,482,282,,355,3810,1040,280,,165,129,169
CO[C@H]1C[C@@H]2CC[C@@H](C)[C@@](O)(O2)C(=O)C(=O)N2CCCC[C@H]2C(=O)O[C@H]([C@H](C)C[C@@H]2CC[C@@H](OP(C)(C)=O)[C@H](OC)C2)CC(=O)[C@H](C)/C=C(\C)[C@@H](O)[C@@H](OC)C(=O)[C@H](C)C[C@H](C)/C=C/C=C/C=C/1C [Ridaforolimus],0.59,3.88,1.13,1.65,0.17,,,0.9,0.91,1.22,1.03,6.62,0.42,,,0.78,2.24,,0.98,2.27,1.61,,0.57
Cc1cc(Nc2cc(CN3CCOCC3)c3nc(C)c(Cc4ccc(Cl)cc4F)n3n2)n[nH]1,851,930,2130,2150,2650,,,,,,,,,,,,,,,,,,
